How the values were obtained:
[1] = tested on: Myh6-mCherry neonatal mouse skin fibroblasts (NSF); assay: GMT-mediated reprogramming of Myh6-mCherry neonatal mouse skin fibroblasts into induced cardiomyocyte like cells (iCM); format: cell-based; conditions: for optimal action concentration: cTnT staining, titrated on 2 μM of the other small molecule of 2C
Experimental: Reprogramming steps: at d-2, plating cells; at d-1, infecting with virus; andat d0, removing virus-containing medium, and replacing with reprogramming medium. Beating cell count and immunofluorescence assay were performed after approximately 3 weeks.
iCM reprogramming medium: DMEM/M199 (4:1) supplemented with 10% KnockOut serum replacement (KSR), 10% FBS, 1% GlutaMAX, 1% MEM NEAA, 1% Pen Strep, 2 μg/ml Dox and small molecule mixture 2C (2 μM SB431542, 2 μM Baricitinib).
At D-2, 24-well plate was coated with 0.1% gelatin and then placed in a cell culture incubator at 37° C. for 30 min, then the gelatin was aspirated, and the 24-well plate was inoculated with 80,000 cells per well. At D-1, MEF medium containing 6 ng/μl polybrene was replaced, the cells were infected with FU-tet-o-Gata4, FU-tet-o-Mef2c, FU-tet-o-Tbx5, FUdeltaGW-rtTA, 200 μl unconcentrated virus per well per virus. At D0, the medium was replaced with iCM reprogramming medium, and replaced every 3-4 days.
Screening was performed on Myh6-mCherry neonatal mouse dermal fibroblasts. Small molecule library was screened simultaneously with transfection of three genes of GMT (Gata4, Mef2c and Tbx5) to quantify the effect of small molecules on reprogramming by observing the ratio and brightness of reporter genes, as shown in FIG. 1A. Specifically, at D-2 (day-2), Myh6-mCherry neonatal mouse skin fibroblasts (NSF) were plated; at D-1 (day-1), the cells were infected with three lentiviruses expressing Gata4, Mef2c and Tbx5 (GMT), respectively; and at D0 (day 0), the media were replaced with reprogramming media added with small molecules, and replaced every 3-4 days. After three weeks of induction, the number of Myh6-mCherry positive cells was observed and counted to screen for small molecules that promoted the induced cardiomyocyte like cells (iCM).
The optimal action concentration and optimal action time of 2C were then further investigated. […] First, the optimal action concentration of SB431542 was determined by cardiomyocyte marker cTnT staining after adding different concentrations of SB431542 based on 2 μM Baricitinib. […]

[2] = tested on: neonatal mouse skin fibroblasts (NSF) and mouse cardiac fibroblasts (nCFs); assay: Substitute for 2C: small molecules of the same signaling pathway (beating cells in GMT NSF, cTnT positive cells in MT nCF); format: cell-based; conditions: GMT NSF D18 beating, MT nCF four weeks cTnT; for replacement of SB431542 (beating cells, number of cTnT-positive cells): combined with Baricitinib; for replacement of Baricitinib (beating cells, number of cTnT-positive cells): combined with SB431542
Experimental: Specifically, at D-2 (day-2), Myh6-mCherry neonatal mouse skin fibroblasts (NSF) were plated; at D-1 (day-1),the cells were infected with three lentiviruses expressing Gata4, Mef2c and Tbx5 (GMT), respectively; at D0 (day 0), the media were replaced with reprogramming media added with small molecules, and replaced every 3-4 days; andat D18, beating cells were counted. In addition, at D-2, WT mouse cardiac fibroblasts (nCFs) were plated, and residual cardiomyocytes were removed with CD90.2 MACS; at D-1, the cells were infected with virus expressing Mef2c+Tbx5 (MT); at D0, the media were replaced with reprogramming media added with small molecules, and replaced every 3 days; and after four weeks, cTnT positive cells were counted.2C was used as a positive control.
SB431542 is an inhibitor of TGFβ signaling pathway, and this example analyzed whether other small molecules of this signaling pathway could be combined with Baricitinib, including RepSox, GW788388, SD-208, LY364947, Y-27632, LDN-193189, LY2109761 and Galunisertib. Baricitinib is an inhibitor of Jak pathway, and this example analyzed whether other small molecules of this signaling pathway could be combined with SB431542, including Filgotinib, WP1066, Gandotinib, Ruxolitinib and AZD1480. […] It can be seen that the TGFβ signaling pathway is important for reprogramming into cardiomyocytes; however, at the same time, Baricitinib cannot be replaced by most other compounds targeting Jak-Stat.

[3] = tested on: neonatal mouse fibroblasts; assay: Tyk2 small molecule inhibitors: reprogramming of neonatal mouse fibroblasts into cardiomyocytes (MT+SB431542); format: cell-based; conditions: for beating cardiomyocytes: 2 uM SB431542; for cTnI and a-actinin positive cells: 2 uM SB431542, Tyk2 inhibitor 1, 2, 5 and 10 uM
Experimental: Neonatal suckling mice within 24 h were ordered from Vital River. In an ultraclean bench, heart tissue was taken, cut with sterilized surgical instruments, added with an appropriate amount of Type II Collagenase (1 mg/mL), digested at 37° C. constant temperature, after full digestion, washed twice with IMDM (20% FBS+1% PS+1% NEAA+1% Glu-Max) medium, resuspended with the medium, and plated in a 10 cm culture dish. After 24 h, fresh IMDM was added, and on the fourth day, CD90.2 (anti-Thy1+) was used for MACS separation. The sorted cells were plated in a 24-well plate 2-5×10^5/well), and infected with Fu-tet-o-Mef2c-T2A-Tbx5 virus and rtTA 24 h after plating. After 24 h, the medium was replaced with reprogramming medium, and replaced every 3 days. Beating cells could be seen at the 4th week, and a large number of cTnI and a-actinin could be seen by immunofluorescence staining.
10% FBS, 10% KSR, DMEM/M199 [4:1], 1% PS+1% NEAA+1% Glu-Max, 2 uM SB431542, Tyk2 inhibitor (BMS-986165 or PF-06826647), replaced every 3 days. Tyk2 inhibitor was used at 1, 2, 5 and 10 uM, and the optimal concentration is shown in the concentration gradient curve.

Tyk2 gene = assay: Knockdown effect of shRNAs on Tyk2 expression; format: cell-based, mouse; conditions: FIG. 21C
Source text: (§1) Briefly, shRNAs targeting Tyk2 gene (shTyk2#1, shTyk2#2, shTyk2#3, shTyk2#4, shTyk2#5) were designed, introduced into neonatal mouse fibroblasts together with transcription factor combination MT, and then induced in reprogramming medium containing C1 to test the efficiency of reprogramming into cardiomyocyte-like cells.

[4] = tested on: neonatal mouse fibroblasts; assay: Cardiomyocyte reprogramming with Tyk2 knockdown/knockout plus MT and C1; format: cell-based; conditions: combined with transcription factor MT and C1
Source text: as §1
To further confirm the role of specific inhibition of Tyk2 in cardiomyocyte reprogramming, the inventors further designed five different sgRNAs targeting Tyk2 gene, knocked out the Tyk2 gene of neonatal mouse fibroblasts using CRISPR technique, and tested the efficiency of cardiomyocyte reprogramming in the presence of transcription factor MT and C1, respectively. sgNT was a control for non-targeted Tyk2.

[5] = tested on: WT mouse cardiac fibroblasts (nCFs); assay: Replacement of Baricitinib in combination with SB431542 on the basis of MT transduction; format: cell-based; conditions: three weeks
Source text: In addition, some small anti-inflammatory molecules have been reported to increase reprogramming-induced cardiomyocyte efficiency, such as Dexamethasone or Nabumetone.

Compound: NC(=O)c1ccc(-c2nc(-c3ccc4c(c3)OCO4)c(-c3ccccn3)[nH]2)cc1 [SB431542]
- optimal action concentration [1]: 2 µM
- efficiency of reprogramming induced cardiomyocytes (number of Myh6-mCherry positive cells) ([1]; three weeks of induction): increase the efficiency of reprogramming induced cardiomyocytes

Compound: c1ccc2c(-c3cnn4cc(-c5ccc(N6CCNCC6)cc5)cnc34)ccnc2c1 [LDN-193189]
- replacement of SB431542 (beating cells, number of cTnT-positive cells) [2]: could be effectively replaced by small molecules of the same signaling pathway

Compound: CCS(=O)(=O)N1CC(CC#N)(n2cc(-c3ncnc4[nH]ccc34)cn2)C1 [Baricitinib]
- optimal action concentration [1]: 2 µM

Compound: Fc1ccc(Cl)cc1-c1nc(Nc2ccncc2)c2nccnc2n1 [SD-208]
- replacement of SB431542 (beating cells, number of cTnT-positive cells) [2]: could be effectively replaced by small molecules of the same signaling pathway

Compound: c1ccc(-c2[nH]ncc2-c2ccnc3ccccc23)nc1 [LY364947]
- replacement of SB431542 (beating cells, number of cTnT-positive cells) [2]: could be effectively replaced by small molecules of the same signaling pathway

Compound: c1ccc(-c2nn3c(c2-c2ccnc4cc(OCCN5CCOCC5)ccc24)CCC3)nc1 [LY2109761]
- replacement of SB431542 (beating cells, number of cTnT-positive cells) [2]: could be effectively replaced by small molecules of the same signaling pathway

Compound: C[C@H](NC(=O)/C(C#N)=C/c1cccc(Br)n1)c1ccccc1 [WP1066]
- replacement of Baricitinib (beating cells, number of cTnT-positive cells) [2]: only its structural analogue Ruxolitinib could be used for replacement

Compound: BMS-986165
- beating cardiomyocytes [3]: could induce beating cardiomyocytes from fibroblasts
- cTnI and a-actinin positive cells [3]: could induce a number of cardiac specific markers cTnI and a-actinin positive cells from fibroblasts

Compound: C[C@@H](N)[C@H]1CC[C@H](C(=O)Nc2ccncc2)CC1 [Y-27632]
- replacement of SB431542 (beating cells, number of cTnT-positive cells) [2]: could be effectively replaced by small molecules of the same signaling pathway

Compound: shTyk2#2: shRNA targeting Tyk2 gene, SEQ ID NO: 2 (CCCTTCATCAAGCTAAGTGATCTCGAGATCACTTAGCTTGATGAAGGG)
- knockdown of Tyk2 expression (Tyk2 gene): could knockdown the expression of Tyk2
- efficiency of cardiomyocyte reprogramming (cTnI and a-actinin immunofluorescence) [4]: could achieve similar efficiency of cardiomyocyte reprogramming as small molecule combination 2C

Compound: shTyk2#1: shRNA targeting Tyk2 gene, SEQ ID NO: 1 (CCCATCTTCATTAGCTGGGAACTCGAGTTCCCAGCTAATGAAGATGGG)
- knockdown of Tyk2 expression (Tyk2 gene): could knockdown the expression of Tyk2
- efficiency of cardiomyocyte reprogramming (cTnI and a-actinin immunofluorescence) [4]: could achieve similar efficiency of cardiomyocyte reprogramming as small molecule combination 2C

Compound: shTyk2#3: shRNA targeting Tyk2 gene, SEQ ID NO: 3 (CCACTTTAAGAATGAGAGCTTCTCGAGAAGCTCTCATTCTTAAAGTGG)
- knockdown of Tyk2 expression (Tyk2 gene): could knockdown the expression of Tyk2
- efficiency of cardiomyocyte reprogramming (cTnI and a-actinin immunofluorescence) [4]: could achieve similar efficiency of cardiomyocyte reprogramming as small molecule combination 2C

Compound: O=C(NC1CCOCC1)c1ccc(-c2cc(-c3c[nH]nc3-c3ccccn3)ccn2)cc1 [GW788388]
- replacement of SB431542 (beating cells, number of cTnT-positive cells) [2]: could be effectively replaced by small molecules of the same signaling pathway

Compound: Cc1cc(Nc2nc(N[C@@H](C)c3ncc(F)cn3)ncc2Cl)n[nH]1 [AZD1480]
- replacement of Baricitinib (beating cells, number of cTnT-positive cells) [2]: only its structural analogue Ruxolitinib could be used for replacement

Compound: Cc1cccc(-c2[nH]ncc2-c2ccc3ncccc3n2)n1 [RepSox]
- replacement of SB431542 (beating cells, number of cTnT-positive cells) [2]: could be effectively replaced by small molecules of the same signaling pathway

Compound: Cc1cccc(-c2nn3c(c2-c2ccnc4ccc(C(N)=O)cc24)CCC3)n1 [Galunisertib]
- replacement of SB431542 (beating cells, number of cTnT-positive cells) [2]: could be effectively replaced by small molecules of the same signaling pathway

Compound: COc1ccc2cc(CCC(C)=O)ccc2c1 [Nabumetone]
- replacement of the effect of Baricitinib [5]: could not replace the effect of Baricitinib

Compound: Cn1cc(-c2cn3nccc3c(-c3cnn([C@]4(CC#N)C[C@@H](C#N)C4)c3)n2)cn1 [PF-06826647]
- beating cardiomyocytes [3]: could induce beating cardiomyocytes from fibroblasts
- cTnI and a-actinin positive cells [3]: could induce a number of cardiac specific markers cTnI and a-actinin positive cells from fibroblasts

Compound: O=C(Nc1nc2cccc(-c3ccc(CN4CCS(=O)(=O)CC4)cc3)n2n1)C1CC1 [Filgotinib]
- replacement of Baricitinib (beating cells, number of cTnT-positive cells) [2]: only its structural analogue Ruxolitinib could be used for replacement

Compound: Cc1cc(Nc2cc(CN3CCOCC3)c3nc(C)c(Cc4ccc(Cl)cc4F)n3n2)n[nH]1 [Gandotinib]
- replacement of Baricitinib (beating cells, number of cTnT-positive cells) [2]: only its structural analogue Ruxolitinib could be used for replacement

Source: patent publication US20240384233A1, “Method for Producing Cardiomyocytes by Means of Reprogramming” (Plastech Pharmaceutical Technology Co., Ltd., priority 2020, published 2024)
